Values of other authors as cited in US20080004343A1, “Stable polymorphs of (E)-N,N-diethyl-2-cyano-3-(3,4-dihydroxy-5-nitrophenyl)acrylamide” (Wockhardt Limited, priority 2006, published 2008).

stability under the influence of heat or acids | SMILES | isomerization to polymorphic form A on standing (standing at room temperature)
unstable | CCN(CC)C(=O)/C(C#N)=C/c1cc(O)c(O)c([N+](=O)[O-])c1 [polymorphic form B, (E)-N,N-diethyl-2-cyano-3-(3,4-dihydroxy-5-nitrophenyl)acrylamide] | isomerizes slowly to the polymorphic form A
unstable | CCN(CC)C(=O)C(C#N)=Cc1cc(O)c(O)c([N+](=O)[O-])c1 [(Z)-isomer, N,N-diethyl-2-cyano-3-(3,4-dihydroxy-5-nitrophenyl)acrylamide] | 
